Assay results published in paper PMC6268909 (Molecules, 2012).
≈ marks a conversion by molar mass, not a printed value. Counter-ions that a name gives are not always drawn. Like-named read-outs stand apart in the source and are kept apart here.

Key:
Staphylococcus aureus = conditions: cited from earlier work
C. sphaerospermum = tested on: C. sphaerospermum; set-up: method as in PMID 20158153; conditions: compound from endophytic Penicillium sp.; cited from earlier work
[1] = tested on: methicillin-resistant S. aureus; conditions: cited from earlier work
Microbotryum violacerum = tested on: Microbotryum violacerum; set-up: method as in earlier work; conditions: compound from endophytic fungus of Meliotus dentatus; cited from earlier work
Bacillus megaterium = tested on: Bacillus megaterium; set-up: method as in earlier work; conditions: compound from endophytic fungus of Meliotus dentatus; cited from earlier work
[2] = biological target: T1, acetylcholinesterase (AChE) (Homo sapiens, UniProt P22303); test: biochemical
T1 construct: purchased Sigma-Aldrich (St. Louis, MO, USA)

Magnaporthe oryzae P131 = test: microbe, parasite or virus in culture; format: cell-based; conditions: Pyricularia oryzae, read-out: IC50, antimicrobial activity, M. or.
[3] = tested on: Pseudomonas lachrymans ATCC 11921; test: microbe, parasite or virus in culture; format: cell-based; conditions: ATCC11921, 24 h, read-out: IC50, antimicrobial activity, P. lach.
[4] = tested on: Xanthomonas vesicatoria ATCC 11633; test: microbe, parasite or virus in culture; format: cell-based; conditions: ATCC11633, 24 h, read-out: IC50, antimicrobial activity, X. ves.
[5] = tested on: Ralstonia solanacearum ATCC 11696; test: microbe, parasite or virus in culture; format: cell-based; conditions: ATCC11696, 24 h, read-out: IC50, antimicrobial activity, R. sol.
[6] = tested on: Bacillus subtilis ATCC 11562; test: microbe, parasite or virus in culture; format: cell-based; conditions: ATCC11562, 24 h, read-out: IC50, antimicrobial activity, B. sub.
[7] = tested on: Cladosporium cladosporioides; set-up: method as in PMID 20158153; conditions: compound from endophytic Penicillium sp.; cited from earlier work
[8] = tested on: Agrobacterium tumefaciens ATCC 11158; test: microbe, parasite or virus in culture; format: cell-based; conditions: ATCC11158, 24 h, read-out: IC50, antimicrobial activity, A. tum.
[9] = tested on: human colon carcinoma cells; conditions: cited from earlier work
[10] = tested on: various cultured mammalian cells; conditions: cited from earlier work
Alternaria alternata = tested on: Alternaria alternata; set-up: method as in PMID 15787237; conditions: cited from earlier work
[11] = biological target: acetycholinesterase (AChE); set-up: method as in PMID 15787237; conditions: previously reported; cited from earlier work

T1 sequence (P22303 32-614, species assumed): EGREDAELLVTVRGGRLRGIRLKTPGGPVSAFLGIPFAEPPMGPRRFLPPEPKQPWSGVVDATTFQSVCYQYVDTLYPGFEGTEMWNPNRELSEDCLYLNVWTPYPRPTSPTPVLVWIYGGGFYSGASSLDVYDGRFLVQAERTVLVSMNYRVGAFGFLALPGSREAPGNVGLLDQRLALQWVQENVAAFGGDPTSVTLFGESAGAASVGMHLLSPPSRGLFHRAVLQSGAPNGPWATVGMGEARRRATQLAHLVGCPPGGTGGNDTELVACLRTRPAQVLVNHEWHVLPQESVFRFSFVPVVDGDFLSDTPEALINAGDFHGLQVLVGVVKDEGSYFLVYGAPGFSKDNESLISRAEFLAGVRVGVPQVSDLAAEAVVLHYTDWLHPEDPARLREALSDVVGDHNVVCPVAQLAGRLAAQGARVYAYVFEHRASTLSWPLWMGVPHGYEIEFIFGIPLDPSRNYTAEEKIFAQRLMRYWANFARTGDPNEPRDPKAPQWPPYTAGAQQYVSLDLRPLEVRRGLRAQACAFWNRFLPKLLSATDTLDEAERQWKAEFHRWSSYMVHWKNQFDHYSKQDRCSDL

SMILES | MIC (Staphylococcus aureus) | antifungal activity at concentration (C. sphaerospermum) | MIC [1] | antifungal activity (Microbotryum violacerum) | antibacterial activity (Bacillus megaterium) | IC50 [2] | IC50 (Magnaporthe oryzae P131; P131, 7 h) | IC50 [3] | IC50 [4] | IC50 [5] | IC50 [6] | antifungal activity at concentration [7] | IC50 [8] | mitochondrial apoptosis [9] | IC50 (Magnaporthe oryzae P131; P131, 7 h at 25 °C) | DNA strand breaks, micronuclei and gene mutations [10] | MIC (Alternaria alternata) | IC50, acetycholinesterase (AChE) inhibitory activity [11]
CC1OC(=O)c2c(O)cccc2C1O (centres unmarked) [4,8-dihydroxy-3-methylbenzopyran-1-one] | 8 µg/mL (≈ 41.2 µM) | 10.0 µg/mL | 8 µg/mL (≈ 41.2 µM) | antifungal activity | strong antibacterial activity | 598 µM | 113 µg/mL (≈ 584 µM) | 16.2 µg/mL (≈ 83.3 µM) | 17.8 µg/mL (≈ 91.7 µM) | 16.2 µg/mL (≈ 83.6 µM) | 19.2 µg/mL (≈ 99 µM) | 5.00 µg/mL | 18.2 µg/mL (≈ 93.8 µM) |  |  |  |  | 
COc1cc(O)c2c(=O)oc3cc(O)cc(C)c3c2c1 [Alternariol 9-methyl ether (3), 3,7-dihydroxy-9-methoxy-1-methyl-6H-dibenzo[b,d]pyran-6-one] |  |  |  |  |  | 498 µM |  | 27.1 µg/mL (≈ 99.5 µM) | 30.1 µg/mL (≈ 110 µM) | 29.2 µg/mL (≈ 107 µM) | 34.3 µg/mL (≈ 126 µM) |  | 28.8 µg/mL (≈ 106 µM) | induce mitochondrial apoptosis | 123 µg/mL (≈ 452 µM) | induce DNA strand breaks, micronuclei and gene mutations |  | 
COC1=CC2(C)OC(=O)c3c(O)cc(OC)cc3C2=C(O)C1=O (centres unmarked) [Botrallin (4), 1,7-dihydroxy-3,9-dimethoxy-4a-methyl-6H-dibenzo[b,d]pyran-2,6 (4aH)-dione] |  |  |  |  |  | 326 µM |  | 92.2 µg/mL (≈ 290 µM) | 86.3 µg/mL (≈ 271 µM) | 85.5 µg/mL (≈ 269 µM) | 98.5 µg/mL (≈ 309 µM) |  | 87.5 µg/mL (≈ 275 µM) |  | 107 µg/mL (≈ 337 µM) |  | 62.5 µg/mL (≈ 196 µM) | 6.1 µg/mL (≈ 19.2 µM)
COc1cc(O)c2c(=O)oc3cc(O)c(Cl)c(C)c3c2c1 [Palmariol B (1), 2-chloro-3,7-dihydroxy-9-methoxy-1-methyl-6H-dibenzo[b,d]pyran-6-one] |  |  |  |  |  | 376 µM |  | 16.7 µg/mL (≈ 54.6 µM) | 28.1 µg/mL (≈ 91.7 µM) | 17.5 µg/mL (≈ 57.1 µM) | 27.7 µg/mL (≈ 90.2 µM) |  | 19.4 µg/mL (≈ 63.1 µM) |  | 119 µg/mL (≈ 387 µM) |  |  | 
COC(=O)Nc1nc2ccccc2[nH]1 [carbendazim, reference compound] |  |  |  |  |  |  | 13 µg/mL (≈ 68 µM) |  |  |  |  |  |  |  |  |  |  | 
[H]/N=C(/N)N[C@H]1[C@H](O)[C@@H](O)[C@H](O[C@@H]2O[C@@H](C)[C@](O)(C=O)[C@H]2O[C@@H]2O[C@@H](CO)[C@H](O)[C@@H](O)[C@@H]2NC)[C@@H](N/C(N)=N\[H])[C@@H]1O [streptomycin sulfate, reference compound] |  |  |  |  |  |  |  | 8.34 µg/mL | 6.79 µg/mL | 7.19 µg/mL | 8.35 µg/mL |  | 6.34 µg/mL |  |  |  |  | 
